The text below walks through data of patent US6667325B1, “Substituted pyrazole compounds” (Teikoku Hormone Mfg. Co., Ltd., priority 1999, dated 2003).

Take `Cn1nc(-c2ccc(F)cc2)c(-c2ccncc2)c1C(O)CCc1ccccc1` (stereo not drawn) [Example 15, 3-(4-Fluorophenyl)-5-(1-hydroxy-3-phenylpropyl)-1-methyl-4-(4-pyridyl)pyrazole]: the melting point – broadly, the temperature, or range, at which the solid turns liquid – lay in the range of 62 to 65 °C.
For the compound `Fc1ccc(-c2n[nH]c(C=CCc3cccnc3)c2-c2ccncc2)cc1` [Example 26, 3(5)-(4-Fluorophenyl)-4-(4-pyridyl)-5(3)-[3-(3-pyridyl)-1-propenyl]pyrazole], the melting point was 187 to 188 °C.
The compound `CC(=Cc1[nH]nc(-c2ccc(F)cc2)c1-c1ccncc1)Cc1cccnc1` [Example 27, 3(5)-(4-Fluorophenyl)-5(3)-[2-methyl-3-(3-pyridyl)-1-propenyl]-4-(4-pyridyl)pyrazole] came in with a melting point of 215.5 to 217.5 °C.
The compound `Cn1nc(-c2ccc(F)cc2)c(-c2ccncc2)c1C=CCc1ccccc1` [Example 29, 3-(4-Fluorophenyl)-1-methyl-5-(3-phenyl-1-propenyl)-4-(4-pyridyl)pyrazole] came in with a melting point of 136 to 137 °C.
Regarding `Fc1ccc(-c2n[nH]c(CCCc3ccccc3)c2-c2ccncc2)cc1` [Example 31, 3(5)-(4-Fluorophenyl)-5(3)-(3-phenylpropyl)-4-(4-pyridyl)pyrazole], the melting point lay in the range of 155.5 to 156.5 °C.
Turning to `Fc1ccc(-c2n[nH]c(CCCc3ccccn3)c2-c2ccncc2)cc1` [Example 40, 3(5)-(4-Fluorophenyl)-4-(4-pyridyl)-5(3)-[3-(2-pyridyl)propyl]pyrazole], the melting point is 143 to 144.5 °C.
Turning to `Fc1ccc(-c2n[nH]c(CCCc3cccnc3)c2-c2ccncc2)cc1` [Example 43, 3(5)-(4-Fluorophenyl)-4-(4-pyridyl)-5(3)-[3-(3-pyridyl)propyl]pyrazole], the melting point lay within 207 to 210 °C.
With `Fc1ccc(-c2n[nH]c(CCCn3cccn3)c2-c2ccncc2)cc1` [Example 55, 3(5)-(4-Fluorophenyl)-5(3)-[3-(1-pyrazolyl)propyl]-4-(4-pyridyl)pyrazole], the melting point lay within 144.5 to 146.5 °C.
For `Cn1nc(-c2ccc(F)cc2)c(-c2ccncc2)c1CCCc1ccc([N+](=O)[O-])cc1` [Example 56, 3-(4-Fluorophenyl)-1-methyl-5-[3-(4-nitrophenyl)propyl]-4-(4-pyridyl)pyrazole] the value was 129.1 to 131.8 °C; for `Cn1nc(-c2ccc(F)cc2)c(-c2ccncc2)c1CCCc1ccc(N)cc1` [Example 57, 5-[3-(4-Aminophenyl)propyl]-3-(4-fluorophenyl)-1-methyl-4-(4-pyridyl)pyrazole], 80.5 to 81.1 °C; for `Cn1nc(-c2ccc(F)cc2)c(-c2ccncc2)c1CCCc1ccccc1` [Example 58, 3-(4-Fluorophenyl)-1-methyl-5-(3-phenylpropyl)-4-(4-pyridyl)pyrazole], 83 to 87 °C.
Regarding `COc1ccc(CNC(=O)c2c(-c3ccncc3)c(-c3ccc(F)cc3)nn2C)cc1` [Example 69, 3-(4-Fluorophenyl)-5-(4-methoxybenzylaminocarbonyl)-1-methyl-4-(4-pyridyl)pyrazole], the melting point was 162.3 to 164.8 °C.
For `COc1ccc(CN(C)C(=O)c2[nH]nc(-c3ccc(F)cc3)c2-c2ccncc2)cc1` [Example 73, 3(5)-(4-Fluorophenyl)-5(3)-(N-methyl-4-methoxybenzylaminocarbonyl)-4-(4-pyridyl)pyrazole] the value was 225.8 to 228.4 °C.
In turn, `CCN(Cc1ccccc1)C(=O)c1[nH]nc(-c2ccc(F)cc2)c1-c1ccncc1` [Example 74, 5(3)-(N-Ethylbenzylaminocarbonyl)-3(5)-(4-fluorophenyl)-4-(4-pyridyl)pyrazole] yielded a melting point of 202.9 to 204.6 °C.
For `CCn1nc(-c2ccc(F)cc2)c(-c2ccncc2)c1C(=O)N(C)Cc1ccccc1` [Example 75, 1-Ethyl-5-(N-methylbenzylaminocarbonyl)-3-(4-fluorophenyl)-4-(4-pyridyl)pyrazole] the value was 148 to 149.3 °C; for `CCN(Cc1ccccc1)C(=O)c1c(-c2ccncc2)c(-c2ccc(F)cc2)nn1CC` [Example 76, 1-Ethyl-5-(N-ethylbenzylaminocarbonyl)-3-(4-fluorophenyl)-4-(4-pyridyl)pyrazole], 114.9 to 116.7 °C; for `CN(Cc1ccccc1)C(=O)c1c(-c2ccncc2)c(-c2ccc(F)cc2)nn1C` [Example 77, 3-(4-Fluorophenyl)-1-methyl-5-(N-methylbenzylaminocarbonyl)-4-(4-pyridyl)pyrazole], 149.1 to 150.2 °C.
For `COc1ccc(CN(C)C(=O)c2c(-c3ccncc3)c(-c3ccc(F)cc3)nn2C)cc1` [Example 79, 3-(4-Fluorophenyl)-1-methyl-5-(N-methyl-4-methoxybenzylaminocarbonyl)-4-(4-pyridyl)pyrazole] the value was 150.1 to 152.6 °C; for `CCn1nc(-c2ccc(F)cc2)c(-c2ccncc2)c1C(=O)N(C)Cc1ccccn1` [Example 80, 1-Ethyl-3-(4-fluorophenyl)-5-(N-methyl-2-pyridylmethylaminocarbonyl)-4-(4-pyridyl)pyrazole], 144.4 to 146.8 °C.
For `CN(Cc1ccccc1)C(=O)c1c(-c2ccncc2)c(-c2ccc(F)cc2)nn1CCO` [Example 81, 3-(4-Fluorophenyl)-1-(2-hydroxyethyl)-5-(N-methylbenzylaminocarbonyl)-4-(4-pyridyl)pyrazole], the melting point fell in the range of 135.9 to 138.1 °C.
Consider `Fc1ccc(-c2n[nH]c(COCc3ccccc3)c2-c2ccncc2)cc1` [Example 82, 5(3)-(Benzyloxymethyl)-3(5)-(4-fluorophenyl)-4-(4-pyridyl)pyrazole], for which the melting point fell in the range of 177.6 to 180.2 °C.
As to `CC(OCc1ccccc1)c1[nH]nc(-c2ccc(F)cc2)c1-c1ccncc1` (stereo not drawn) [Example 83, 5(3)-[1-(Benzyloxy)ethyl]-3(5)-(4-fluorophenyl)-4-(4-pyridyl)pyrazole], the melting point lay within 169.2 to 173.5 °C.
`O=C(Cc1ccccc1)Cc1[nH]nc(-c2ccc(F)cc2)c1-c1ccncc1` [Example 86, 3(5)-(4-Fluorophenyl)-5(3)-(2-oxo-3-phenylpropyl)-4-(4-pyridyl)pyrazole]: the melting point is 187.7 to 193.5 °C.
`Cn1nc(-c2ccc(F)cc2)c(-c2ccncc2)c1CC(=O)Cc1ccccc1` [Example 87, 3-(4-Fluorophenyl)-1-methyl-5-(2-oxo-3-phenylpropyl)-4-(4-pyridyl)pyrazole] showed a melting point of 148.1 to 151 °C.
